From US20240245805A1 (Orna Therapeutics, Inc., priority 2020, published 2024)
Like-named read-outs stand apart in the source and are kept apart here.

Legend:
[1] = cited from earlier work
1C1C7 cells [2] = assay: 5′ UTR variants, GLuc in 1C1C7 cells; format: cell-based; settings: CK IRES with 5′ UTR variants
Source text: This example describes modifications of circular RNAs by inserting 5′ UTR variants. […] 1C1C7 cells were transfected with the circular RNAs.

HEK293 cells = format: cell-based, human; settings: circular RNA encoding Gluc with the listed IRES (UTR truncated to 675 nt) transfected into HEK293 cells; supernatant after 24 hours
1C1C7 cells [3] = assay: GLuc luminescence and functional stability by IRES, 1C1C7 cells
[4] = Table 2, lipids of Formula (II)

CCCCCCCCC(CCCC)COC(=O)CCCCCCCCC(CCCCCCCCC(=O)OCC(CCCC)CCCCCC)N(CCCN(C)C)C(=O)C(CC)CCCCC (centres unmarked) [II-35]
pKa [1, 4]: 5.97

CCCCCCCCC(CCCCCC)CCCOC(=O)CCCCCN(CCCCCC(=O)OCC(CCCCCC)CCCCCCCC)CCN(C)C (centres unmarked) [Lipid I-22]
pKa ([1]; Table 1, lipids of Formula I): 6.53

UTR3: 5′ UTR variant: "a higher-GC/structured spacer with a kozak sequence" (UTR3) (DNA CGAACTAGTATTCTTCTGGTCCCCACAGACTCAGAGAGAACCCGCCACC; 5' UTR segment within a circular RNA construct, further chemistry not given here)
translation (1C1C7 cells [2]): did not show the same benefit

CCCCCCCCC(CCCCCC)CCCOC(=O)CCCCCN(CCCCCC(=O)OCC(CCCCCC)CCCCCCCC)CCN(C)CC (centres unmarked) [Lipid I-33]
pKa ([1]; Table 1, lipids of Formula I): 6.27

CCCCCCCCCCCCC(CCCCCCCCCC)C(=O)OCCCCCCN(CCCCCCOC(=O)C(CCCCCCCCCC)CCCCCCCCCCCC)CCN(C)C (centres unmarked) [Lipid I-39]
pKa ([1]; Table 1, lipids of Formula I): 6.82

UTR2: 5′ UTR variant: canonical Kozak sequence with "a 36-nucleotide unstructured/low GC spacer sequence" added (UTR2) (DNA AATAAGAGAGAAAAGAAGAGTAAGAAGAAATATAAGAGCCACC; 5' UTR segment within a circular RNA construct, further chemistry not given here)
translation (1C1C7 cells [2]): more effective

CCCCCCCCC(=O)N(CCCN(C)C)C(CCCCCCCCC(=O)OCC(CCCC)CCCC)CCCCCCCCC(=O)OCC(CCCC)CCCCCC (centres unmarked) [II-9]
pKa [1, 4]: 6.27

B1: EV 30 (nucleic acid, listed as Enterovirus sp.)
chain: AAGCAAGGCAAACCTGACCAATAGTAGGTGTGGCACACCAGCCGCATTTTGGTCAAGCACTTCTGTTTCCCCGGACCGAGTATCAATAAGCTGCTCACGCGGCTGAAGGAGAAACCGTTCGTTACCCGACCAGCTACTTCGAGAAACCTAGTAACACTATGAACGTTGCGGAGTGTTTCGTTCAGCACTTCCCCCGTGTAGATCAGGTCGATGAGTCACCGCATTCCTCACGGGTGACCGTGGCGGTGGCTGCGTTGGCGGCCTGCCTACGGGTTCGCCCGTAGGACGCTCTAATACCGACATGGTGTGAAGAGTCCATTGAGCTAGCTGGTAGTCCTCCGGCCCCTGAATGCGGCTAATCCTAACTGCGGAGCAGGTGCTCACAGACCAGTGAGTAGCCTGTCGTAACGGGCAACTCTGCAGCGGAACCGACTACTTTGGGTGTTTTTCCTTTTTTCTTCTCTTATATTGGCTGCTTATGGTGACAATTAAAGAATTGTTACCATATAGCTATTGGATTGGCCATCCGGTGACGAGCAGAGCCATTGTTTACCTCTTTGTTGGATTTGTACCTTTGAACCACAAAGTCTTGAATACCATTCATCTCATTTTAAAGTTCAACTCAGCTAAAAGAAA
modifications: lipid formulation
Expression (luminescence from secreted Gluc protein) (HEK293 cells): 5.48E+06

B2: EV C102 (nucleic acid, listed as Enterovirus sp.)
chain: CTTTGTACGCCTGTTTTACATCCCCTCCCCCACGTAACTTTAGAAGCAATTCAACAAGTTCAATAGAGGGGGTACAAACCAGTATCACCACGAACAAGCACTTCTGTTTCCCCGGTGATTTTACATAAGCTGTGCCCACGGCTGAAAGTGAATGATCCGTTACCCGCTCGAGTACTTCGAAAAGCCTAGTATCGCTTTGGGATCTTCGACGCGTTGCGCTCAGCACTCTACCCCGAGTGTAGCTTAGGCTGATGAGTCTGGGCATTCCCCATCGGCGACGATGGCCCAGGCTGCGTTGGCGGCCTACCCATGGCTAACGCCATGGGACGCTAGTTGTGAACAAGGTGTGAAGAGCCTATTGAGCTACTCGAGAGTCCTCCGGCCCCTGAATGCGGCTAATCCCAACCACGGATCAGGTGCCTCCAACCCAGGAGGTGGCCTGTCGTAACGCGCAAGTCTGTGGCGGAACCGACTACTTTGGGTGTCCGTGTTTCCTTTTATCTTTTAAATGGCTGCTTATGGTGACAATCATAGATTGTTATCATAAAGCGAATTGGATTGGCCATCCGGTGAAATACAAACACATTATTTACTTGTTTGTTGGATTTACTCCGCTCACACAGCTTACTCCTAAGATAATATTTATTGTATTGCTGGTAAGGAGACACTATTATA
modifications: lipid formulation
Expression (luminescence from secreted Gluc protein) (HEK293 cells): 8.85E+07

B3: PSIV (2x mut for Xbal) (nucleic acid)
DNA: GCAAAATGGGTACGTAGTTAACCACTGCGTATCAGGATTGCAGGCCACGAAGGGTATTTGCATATCTTTCTATGCGGTATTACGGCTTAAAACCCGTTGTATCTTGTTGTTTGACTGCCTGTATCACTAGTGGCCATTTTATTTAGGTTAGAGACCCCTGATAGTAGGAGAGTTACAAACTCTTTAAAAATTGTTGACCCCGGAAAAGATGGTGACCCCTGTAAGTAGTTGATCAAGAAGATCTATGCGCTGGCATAGTAATCCAGTGTTTCCTGTTTTAGGATGACCTCTGAAAGTAGATGACCGTGGAAAGTCACGTAGTGCCCCAATAAGCACGTTTGGGCAGCGTGCGCTATCACAAGGCTTGATCTCCGAGGAGCCCCTTGTTTTAGCTGGCTGGAAGCCAATGATCTTAAGTAGATAAGTGCTGTTGCTTGTAGTTCAACAGAAAGCTTTGAGTACGTCTTTCTTGCGAGAAAGAACACATGCATTCTTATGCTCTCAATTCTATTATTTTTATTTTGGGCGAAAGGAAAGCTCTCACGCGAGTACGAATAGCCAACCCTTTAT
modifications: lipid formulation
Expression (luminescence from secreted Gluc protein) (HEK293 cells): 9.70E+04

B4: Salivirus A SZ-1 (nucleic acid)
DNA: TCTGTCCTCACCCCATCTTCCCTTCTTTCCTGCACCGTTACGCTTACTCGCATGTGCATTGAGTGGTGCACGTGCTTGAACAAACAGCTACACTCACATGGGGGCGGGTTTTCCCGCCCTGCGGCCTCTCGCGAGGCCCACCCCTCCCCTTCCTCCCATAACTACAGTGCTTTGGTAGGTAAGCATCCTGATCCCCCGCGGAAGCTGCTCACGTGGCAACTGTGGGGACCCAGACAGGTTATCAAAGGCACCCGGTCTTTCCGCCTTCAGGAGTATCCCTGCTAGTGAATTCTAGTAGGGCTCTGCTTGGTGCCAACCTCCCCCAAATGCGCGCTGCGGGAGTGCTCTTCCCCAACTCACCCTAGTATCCTCTCATGTGTGTGCTTGGTCAGCATATCTGAGACGATGTTCCGCTGTCCCAGACCAGTCCAGTAATGGACGGGCCAGTGTGCGTAGTCGTCTTCCGGCTTGTCCGGCGCATGTTTGGTGAACCGGTGGGGTAAGGTTGGTGTGCCCAACGCCCGTACTTTGGTGATACCTCAAGACCACCCAGGAATGCCAGGGAGGTACCCCGCTTCACAGCGGGATCTGACCCTGGGCTAATTGTCTACGGTGGTTCTTCTTGCTTCCACTTCTTTCTACTGTTCATG
modifications: source: /note="Description of Unknown: Salivirus A sequence"
luminescence at 24 hours (1C1C7 cells [3]): produced high luminescence
